Laboratory results: article PMC11491487 (Nature Communications, 2024)
Several values for one entry are separate records, joined by “and”; a condition that tells them apart may be missing. Identical values can stand only once.

How the values were obtained:
[1] = biological target: rRyR1 (Oryctolagus cuniculus, UniProt P11716); experiment: time-lapse [Ca2+]ER fluorescence assay, HEK293 cells; format: cell-based, rabbit
[2] = biological target: Sf RyR (Spodoptera frugiperda, UniProt A0A4P8L6R5); experiment: as above; format: cell-based
[3] = biological target: T1, chiRyR (Oryctolagus cuniculus, UniProt P11716, C4657I/F4564Y/L4792S/R4563K); experiment: cell-based; design: species or system rabbit
[4] = biological target: T2, rRyR1 R4563K (Oryctolagus cuniculus, UniProt P11716, R4563K); experiment: time-lapse [Ca2+]ER fluorescence assay, HEK293 cells; format: cell-based, rabbit; settings: n = 3
T2 construct: expressed in transfected cells

[5] = biological target: T3, rRyR1 F4564Y (Oryctolagus cuniculus, UniProt P11716, F4564Y); experiment: as above; format: cell-based, rabbit; settings: n = 3
T3 construct: expressed in transfected cells

[6] = biological target: T4, rRyR1 C4657I (Oryctolagus cuniculus, UniProt P11716, C4657I); experiment: as above; format: cell-based, rabbit; settings: n = 3
T4 construct: expressed in transfected cells

[7] = biological target: T5, rRyR1 L4792S (Oryctolagus cuniculus, UniProt P11716, L4792S); experiment: as above; format: cell-based, rabbit; settings: n = 3
T5 construct: expressed in transfected cells

[8] = biological target: T6, chiRyR-I4657M/G4819E (Oryctolagus cuniculus, UniProt P11716, C4657M/F4564Y/G4819E/L4792S/R4563K); experiment: cell-based; design: species or system rabbit
[9] = biological target: Sf RyR_I4734M/G4891E (Spodoptera frugiperda, UniProt A0A4P8L6R5, G4891E/I4734M); experiment: cell-based
[10] = biological target: T1, chiRyR; experiment: biochemical; format: biochemical, rabbit
[11] = biological target: T6, chiRyR-I4657M/G4819E; experiment: biochemical; format: biochemical, rabbit
[12] = tested on: Drosophila melanogaster RyR M4758I; experiment: Bioassay of gene-edited Drosophila melanogaster (feeding, mortality after 24 h); format: in vivo; settings: for death rate: 24 h
[13] = tested on: Drosophila melanogaster RyR G4915E; experiment: as above; format: in vivo; settings: for death rate: 24 h
[14] = solubility comparison; format: physicochemical
[15] = tested on: Spodoptera frugiperda; design: method as in PMID 31157506; settings: in vivo; cited from earlier work

With CNC(=O)c1cc(Cl)cc(C)c1NC(=O)c1cc(Br)nn1-c1ncccc1Cl [CHL, chlorantraniliprole] the EC50 [1] was 4900 nM, the F/F0 ([2]; CHL 1e-5 uM) was 0.9606 and 0.9752 and 0.9813 and the F/F0 ([2]; CHL 0.001 uM) was 1.004 and 1.002 and 1.001. For the same compound, the F/F0 ([2]; CHL 0.005 uM) was 0.7229 and 0.7431 and 0.7294, the F/F0 ([2]; CHL 0.01 uM) was 0.3097 and 0.3094 and 0.2868 and the F/F0 ([2]; CHL 0.1 uM) was 0.2582 and 0.2663 and 0.2776. For the same compound, the F/F0 ([2]; CHL 0.5 uM) was 0.268 and 0.2944 and 0.2596, the F/F0 ([2]; CHL 1 uM) was 0.2734 and 0.2934 and 0.2867 and the F/F0 ([2]; CHL 10 uM) was 0.2774 and 0.2809 and 0.2932. For the same compound, the F/F0 ([2]; CHL 50 uM) was 0.2939 and 0.2698 and 0.3129, the EC50 ([2]; n = 3, read-out: EC50) was 5.5 nM and the EC50 [3] was 1.6 nM. The F/F0 ([3]; CHL 1e-5 uM) was 0.9477 and 0.9176 and 0.9126, the F/F0 ([3]; CHL 2.5e-5 uM) was 0.9199 and 0.9229 and 0.931 and the F/F0 ([3]; CHL 5e-5 uM) was 0.8883 and 0.929 and 0.9092. The F/F0 ([3]; CHL 0.0001 uM) was 0.9049 and 0.9411 and 0.8175, the F/F0 ([3]; CHL 0.00025 uM) was 0.8945 and 0.8973 and 0.8398 and the F/F0 ([3]; CHL 0.0005 uM) was 0.6917 and 0.6365 and 0.6304. For the same compound, the F/F0 ([3]; CHL 0.0025 uM) was 0.5122 and 0.4849 and 0.4622, the F/F0 ([3]; CHL 0.005 uM) was 0.6454 and 0.5393 and 0.4867 and the F/F0 ([3]; CHL 0.01 uM) was 0.4912 and 0.5046 and 0.4772. For the same compound, the F/F0 ([3]; CHL 0.025 uM) was 0.5158 and 0.4751 and 0.4992, the F/F0 ([3]; CHL 0.05 uM) was 0.5374 and 0.5173 and 0.549 and the F/F0 ([3]; CHL 0.1 uM) was 0.4915 and 0.5257 and 0.4507. The F/F0 ([3]; CHL 1 uM) was 0.5356 and 0.5199 and 0.5646, the F/F0 ([3]; CHL 3 uM) was 0.5195 and 0.4435 and 0.4631 and the F/F0 ([3]; CHL 10 uM) was 0.5287 and 0.4905 and 0.48. The F/F0 ([3]; CHL 30 uM) was 0.5354 and 0.4682 and 0.4761, the F/F0 ([3]; CHL 50 uM) was 0.5799 and 0.4954 and 0.5274 and the EC50 [4] was 62.6 nM. It also gave an EC50 [5] of 556 nM, an EC50 [6] of 167 nM and an EC50 [7] of 44.8 nM. For the same compound, the F/F0 ([8]; CHL 1e-5 uM) was 0.8891 and 0.8803 and 0.8832, the F/F0 ([8]; CHL 0.0001 uM) was 0.8817 and 0.9289 and 0.9243 and the F/F0 ([8]; CHL 0.001 uM) was 0.9674 and 0.9402 and 0.9553. The F/F0 ([8]; CHL 0.005 uM) was 0.9942 and 0.938 and 0.9411, the F/F0 ([8]; CHL 0.01 uM) was 0.9479 and 0.955 and 0.9174 and the F/F0 ([8]; CHL 0.1 uM) was 0.9465 and 0.9355 and 0.9097. The F/F0 ([8]; CHL 0.3 uM) was 0.9306 and 0.9655 and 0.9439, the F/F0 ([8]; CHL 0.5 uM) was 0.9145 and 0.8971 and 0.9399 and the F/F0 ([8]; CHL 1 uM) was 0.9091 and 0.8544 and 0.9005. For the same compound, the F/F0 ([8]; CHL 3 uM) was 0.8328 and 0.8713 and 0.8682, the F/F0 ([8]; CHL 10 uM) was 0.808 and 0.819 and 0.7565 and the F/F0 ([8]; CHL 30 uM) was 0.7257 and 0.6335 and 0.5826. The F/F0 ([8]; CHL 50 uM) was 0.6512 and 0.5528 and 0.5088, the F/F0 ([8]; CHL 100 uM) was 0.5781 and 0.4912 and the F/F0 ([8]; CHL 200 uM) was 0.6274 and 0.5179. The F/F0 ([8]; CHL 500 uM) was 0.5379 and 0.5182, the EC50 ([8]; EC50, diamide insecticides, n = 3) was 10300 nM and 14600 nM and the EC50 [9] was 9100 nM. For the same compound, the F/F0 ([9]; CHL 0.1 uM) was 0.9609 and 0.9591 and 1.0034, the F/F0 ([9]; CHL 1 uM) was 0.987 and 0.977 and 0.9858 and the F/F0 ([9]; CHL 10 uM) was 0.5363 and 0.6213 and 0.7359. For the same compound, the F/F0 ([9]; CHL 50 uM) was 0.3469 and 0.3845 and 0.4143, the F/F0 ([9]; CHL 100 uM) was 0.3178 and 0.3119 and 0.3455 and the F/F0 ([9]; CHL 150 uM) was 0.3313 and 0.3179 and 0.3624. For the same compound, the F/F0 ([9]; CHL 200 uM) was 0.3347 and 0.3244 and 0.3692, the EC50 [10] was 1.7 ± 0.3 nM and the “[3H]ryanodine binding (B/Bmax)” value ([10]; CHL 0.010 uM) was 0.191 and 0.230 and 0.144 and 0.262. The “[3H]ryanodine binding (B/Bmax)” value ([10]; CHL 0.100 uM) was 0.168 and 0.180 and 0.215, the “[3H]ryanodine binding (B/Bmax)” value ([10]; CHL 1.000 uM) was 0.199 and 0.219 and 0.215 and 0.312 and the “[3H]ryanodine binding (B/Bmax)” value ([10]; CHL 10.000 uM) was 0.246 and 0.234 and 0.250 and 0.215. The “[3H]ryanodine binding (B/Bmax)” value ([10]; CHL 100.000 uM) was 0.207 and 0.242 and 0.223 and 0.191, the EC50 [11] was 14700 ± 1600 nM and the “[3H]ryanodine binding (B/Bmax)” value ([11]; CHL 10.000 uM) was 0.114 and 0.077 and 0.068 and 0.062. For the same compound, the “[3H]ryanodine binding (B/Bmax)” value ([11]; CHL 100.000 uM) was 0.193 and 0.240 and 0.178 and 0.209, the LD50 ([12]; 24 h feeding, n = 30) was 127.9 nM and the death rate ([12]; CHL 0.010 uM) was 0%. The death rate ([12]; CHL 0.033 uM) was 0% and 10%, the death rate ([12]; CHL 0.100 uM) was 60% and 40% and the death rate ([12]; CHL 0.333 uM) was 80% and 70%. For the same compound, the death rate ([12]; CHL 1.000 uM) was 100% and 90%, the death rate ([12]; CHL 3.333 uM) was 100% and the death rate ([12]; CHL 10.000 uM) was 100%. For the same compound, the LD50 ([13]; 24 h feeding, n = 30, heterozygous G4915E/G) was 1.6 mM, the death rate ([13]; CHL 1.000 uM) was 0% and the death rate ([13]; CHL 3.333 uM) was 0%. For the same compound, the death rate ([13]; CHL 10.000 uM) was 0% and 10%, the death rate ([13]; CHL 33.333 uM) was 10% and the death rate ([13]; CHL 100.000 uM) was 10% and 20%. For the same compound, the relative solubility [14] was “more soluble than TET” and the fold decreased sensitivity [15] was 225 fold.
